Test system: K24384-001-R-PDC complex spheroids, viability
Test: Anticancer human tumor K24384-001-R-PDC patient-derived pancreatic adenocarcinoma cell line growth inhibition [GQUAD]
Conditions: for IC50: curve of first compound; for viability, T/C: stronger effect = lower value
Source text: DNA G-quadruplex Stabilizer Agents in Combinations in Complex Spheroids
A high-throughput screen of multi-cell type tumor spheroids was designed to identify active combinations of DNA G-quadruplex stabilizer agents and targeted small molecules. Complex spheroids include a stromal component modeled by human endothelial cells (HUVEC) and fibroblasts modeled by human mesenchymal stem cells (MSCs). The concentration ranges selected for each drug and investigational agent were based upon clinically achievable concentrations if the clinical Cmax of the agent was known.
Compounds. The drugs and investigational agents: pidnarulex (CX-5461; NSC782164), APTO-253 (NSC789042), BRACO-19 (NSC847499), peposertib (NSC802822), ceralasertib (NSC780249), elimusertib (NSC800525), camonsertib (NSC841442), AZD-1390 (NSC803789), olaparib (NSC753686), talazoparib (NSC767125), ART-558 (NSC835418), sotorasib (NSC818433), MRTX-1133 (NSC836407), SN-38 (NSC673596), topotecan (NSC609699), etoposide (NSC141540), doxorubicin (NSC123127), gemcitabine (NSC613327), 5-fluorouracil (NSC19893), paclitaxel (NSC125973), vemurafenib (NSC761431), panobinostat (NSC761190), R-306465 (JNJ-16241199; NSC773264), adavosertib (NSC754352), TP-3654 (NSC805149), carboplatin (NSC241240), KSQ-4279 (NSC840948), and staurosporine (NSC755774) were obtained from the National Cancer Institute (NCI) Developmental Therapeutics Program Chemical Repository (34). The FDA-approved anticancer drug set is available from the NCI Developmental Therapeutics Program. […] The stock solutions were prepared in dimethyl sulfoxide (DMSO, Sigma-Aldrich, St. Louis, MO, cat. D2650) at 800-fold the tested concentration and stored at -70 degrees C prior to their use. All drugs and investigational agents were tested over a range starting from a high concentration at or near the clinical Cmax and decreasing in half-log increments. If the clinical Cmax for an agent had not been determined, the highest concentration tested was 10 microM.
2.3 Cell Culture. All cells were maintained in an incubator at 37 degrees C and 5% CO2 with 95% humidity. The PDC lines were cultured according to standard operating procedures established by the NCI PDMR. All PDCs were thawed and cultured in Matrigel-coated flasks prepared with a working solution of 1X Ham's F-12 nutrient mix, without supplementation (Invitrogen, cat. 11765054), 100 U/mL penicillin-streptomycin (Invitrogen, cat. 15140122), and 2.5% Matrigel (Corning Inc., cat. 354248) for the first three passages. The 857933-349-R-J2-PDC line was cultured in 6C/Colon 1B media, which includes advanced DMEM/F-12 (Thermo Fisher Scientific, cat. 12634028), 10 mM HEPES (Thermo Fisher Scientific, cat. 15630080), 1X GlutaMAX supplement (Thermo Fisher Scientific, cat. 35050061), 0.1 mg/mL primocin (InvivoGen, cat. ant-pm-2), 10% defined fetal bovine serum, heat inactivated (HyClone Laboratories Inc., cat. SH30070.03HI), 50% L-WRN conditioned media (ATCC, cat. CRL-3276), 1.25 mM N-Acetyl-L-cysteine (Sigma-Aldrich, cat. A9165), 10 mM nicotinamide (Sigma-Aldrich, cat. N0636), 1X B-27 supplement (Thermo Fisher Scientific, cat. 17504044), 1X N-2 supplement (Thermo Fisher Scientific, cat. 17502048), 10 microM Y-27632 dihydrochloride (Tocris Bioscience, cat. 1254), and 50 ng/mL human EGF recombinant protein (Thermo Fisher Scientific, cat. PHG0311). The 485176-168-R4-J1-PDC line was cultured in Panc media, which includes all 6C/Colon 1B media components plus 100 ng/mL human FGF-10 (Thermo Fisher Scientific, cat. 100-26), 500 nM SB-431542 (Selleckchem, cat. S1067), and gastrin (Tocris, cat. 3006).
[…]

[1] = second compound 0.0316 µM, first compound 0.0316 µM
[2] = second compound 0.0316 µM, first compound 0.1 µM
[3] = second compound 0.0316 µM, first compound 0.316 µM
[4] = second compound 0.0316 µM, first compound 1 µM
[5] = second compound 0.0316 µM, first compound 3.16 µM
[6] = second compound 0.0316 µM, first compound 10 µM
[7] = second compound 0.1 µM, first compound 0.0316 µM
[8] = second compound 0.1 µM, first compound 0.1 µM
[9] = second compound 0.1 µM, first compound 0.316 µM
[10] = second compound 0.1 µM, first compound 1 µM
[11] = second compound 0.1 µM, first compound 3.16 µM
[12] = second compound 0.1 µM, first compound 10 µM
[13] = second compound 0.316 µM, first compound 0.0316 µM
[14] = second compound 0.316 µM, first compound 0.1 µM
[15] = second compound 0.316 µM, first compound 0.316 µM
[16] = second compound 0.316 µM, first compound 1 µM
[17] = second compound 0.316 µM, first compound 3.16 µM
[18] = second compound 0.316 µM, first compound 10 µM
[19] = second compound 1 µM, first compound 0.0316 µM
[20] = second compound 1 µM, first compound 0.1 µM
[21] = second compound 1 µM, first compound 0.316 µM
[22] = second compound 1 µM, first compound 1 µM
[23] = second compound 1 µM, first compound 3.16 µM
[24] = second compound 1 µM, first compound 10 µM
[25] = second compound 3.16 µM, first compound 0.0316 µM
[26] = second compound 3.16 µM, first compound 0.1 µM
[27] = second compound 3.16 µM, first compound 0.316 µM
[28] = second compound 3.16 µM, first compound 1 µM
[29] = second compound 3.16 µM, first compound 3.16 µM
[30] = second compound 3.16 µM, first compound 10 µM
[31] = second compound 10 µM, first compound 0.0316 µM
[32] = second compound 10 µM, first compound 0.1 µM
[33] = second compound 10 µM, first compound 0.316 µM
[34] = second compound 10 µM, first compound 1 µM
[35] = second compound 10 µM, first compound 3.16 µM
[36] = second compound 10 µM, first compound 10 µM
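Further: spheroids exposed to compounds for seven days.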

Work on `CC1COCCN1c1cc(C2(O)CC3CCC(C2)O3)c2cnn(-c3ccn[nH]3)c2n1` (stereo unspecified) + CN(C)c1ccc(Nc2c3ccc(NC(=O)CCN4CCCC4)cc3nc3cc(NC(=O)CCN4CCCC4)ccc23)cc1 yielded an IC50 (second compound 0.0316 µM) of 103 nM, an IC50 (second compound 0.1 µM) of 74.6 nM and an IC50 (second compound 0.316 µM) of 74.3 nM. For the same molecule, the IC50 (second compound 1 µM) was 68.6 nM, the IC50 (second compound 3.16 µM) was 61.6 nM and the IC50 (second compound 10 µM) was 119 nM. The viability, T/C [1] was 56.5%, the viability, T/C [2] was 52% and the viability, T/C [3] was 33.5%. The viability, T/C [4] was 23.8%, the viability, T/C [5] was 25.4% and the viability, T/C [6] was 14.3%. It also gave a viability, T/C [7] of 68%, a viability, T/C [8] of 43.9% and a viability, T/C [9] of 29.6%. For the same molecule, the viability, T/C [10] was 25.1%, the viability, T/C [11] was 26.6% and the viability, T/C [12] was 15%. The viability, T/C [13] was 70.3%, the viability, T/C [14] was 44% and the viability, T/C [15] was 24.6%. The viability, T/C [16] was 26%, the viability, T/C [17] was 27.2% and the viability, T/C [18] was 14.1%. The viability, T/C [19] was 62.8%, the viability, T/C [20] was 45% and the viability, T/C [21] was 27.1%. It also gave a viability, T/C [22] of 27.7%, a viability, T/C [23] of 27.3% and a viability, T/C [24] of 13.3%. For the same molecule, the viability, T/C [25] was 63.2%, the viability, T/C [26] was 40.5% and the viability, T/C [27] was 24.9%. For the same molecule, the viability, T/C [28] was 27.9%, the viability, T/C [29] was 24.9% and the viability, T/C [30] was 12.9%. It also gave a viability, T/C [31] of 76.2%, a viability, T/C [32] of 48.5% and a viability, T/C [33] of 35.7%. It also gave a viability, T/C [34] of 32.5%, a viability, T/C [35] of 25.4% and a viability, T/C [36] of 12.3%.

Work on `CC1COCCN1c1cc(C2(S(C)(=N)=O)CC2)nc(-c2ccnc3[nH]ccc23)n1` (stereo unspecified) + CN(C)c1ccc(Nc2c3ccc(NC(=O)CCN4CCCC4)cc3nc3cc(NC(=O)CCN4CCCC4)ccc23)cc1 yielded an IC50 (second compound 0.0316 µM) of 1530 nM, an IC50 (second compound 0.1 µM) of 1600 nM and an IC50 (second compound 0.316 µM) of 1710 nM. It also gave an IC50 (second compound 1 µM) of 1700 nM, an IC50 (second compound 3.16 µM) of 1680 nM and an IC50 (second compound 10 µM) of 1700 nM. The viability, T/C [1] was 95.2%, the viability, T/C [2] was 90.1% and the viability, T/C [3] was 113%. It also gave a viability, T/C [4] of 64.1%, a viability, T/C [5] of 28.2% and a viability, T/C [6] of 24.2%. The viability, T/C [7] was 90.3%, the viability, T/C [8] was 115% and the viability, T/C [9] was 84.4%. It also gave a viability, T/C [10] of 60.9%, a viability, T/C [11] of 36.4% and a viability, T/C [12] of 23.2%. It also gave a viability, T/C [13] of 83.3%, a viability, T/C [14] of 92.9% and a viability, T/C [15] of 86.1%. The viability, T/C [16] was 56.9%, the viability, T/C [17] was 42.2% and the viability, T/C [18] was 26.1%. For the same molecule, the viability, T/C [19] was 86.5%, the viability, T/C [20] was 104% and the viability, T/C [21] was 86.2%. It also gave a viability, T/C [22] of 62.2%, a viability, T/C [23] of 35.9% and a viability, T/C [24] of 32.1%. For the same molecule, the viability, T/C [25] was 90.2%, the viability, T/C [26] was 98.6% and the viability, T/C [27] was 99.3%. It also gave a viability, T/C [28] of 60.8%, a viability, T/C [29] of 39.6% and a viability, T/C [30] of 23.4%. It also gave a viability, T/C [31] of 91.6%, a viability, T/C [32] of 102% and a viability, T/C [33] of 86.9%. It also gave a viability, T/C [34] of 62.9%, a viability, T/C [35] of 35.4% and a viability, T/C [36] of 28.2%.

For `COc1ccc([C@@H](O)c2cc(-c3ncnc4cc(N5CCOCC5)ccc34)c(F)cc2Cl)nn1` + CN(C)c1ccc(Nc2c3ccc(NC(=O)CCN4CCCC4)cc3nc3cc(NC(=O)CCN4CCCC4)ccc23)cc1, the IC50 (second compound 0.0316 µM) was 2100 nM, the IC50 (second compound 0.1 µM) was 2600 nM and the IC50 (second compound 0.316 µM) was 1610 nM. The IC50 (second compound 1 µM) was 1930 nM, the IC50 (second compound 3.16 µM) was 2540 nM and the IC50 (second compound 10 µM) was 1080 nM. It also gave a viability, T/C [1] of 98.6%, a viability, T/C [2] of 86.4% and a viability, T/C [3] of 81.2%. The viability, T/C [4] was 58.7%, the viability, T/C [5] was 44.3% and the viability, T/C [6] was 36.5%. The viability, T/C [7] was 89.5%, the viability, T/C [8] was 96.5% and the viability, T/C [9] was 102%. It also gave a viability, T/C [10] of 76.6%, a viability, T/C [11] of 45.9% and a viability, T/C [12] of 34.9%. For the same molecule, the viability, T/C [13] was 91.4%, the viability, T/C [14] was 109% and the viability, T/C [15] was 83.8%. The viability, T/C [16] was 56.8%, the viability, T/C [17] was 42.5% and the viability, T/C [18] was 25.8%. For the same molecule, the viability, T/C [19] was 82.1%, the viability, T/C [20] was 83.1% and the viability, T/C [21] was 84.8%. The viability, T/C [22] was 62.4%, the viability, T/C [23] was 40.3% and the viability, T/C [24] was 23.4%. The viability, T/C [25] was 91.9%, the viability, T/C [26] was 95.4% and the viability, T/C [27] was 72.2%. The viability, T/C [28] was 75.5%, the viability, T/C [29] was 42.4% and the viability, T/C [30] was 22.5%. The viability, T/C [31] was 67.3%, the viability, T/C [32] was 73.6% and the viability, T/C [33] was 72.3%. For the same molecule, the viability, T/C [34] was 44.3%, the viability, T/C [35] was 34.3% and the viability, T/C [36] was 12.3%.

From PubChem BioAssay AID2060483 (Molecular Pharmacology Branch, DTP, NCI, 2025)
